ChEMBL document CHEMBL1150784, “Multicopy blaOXA-58 gene as a source of high-level resistance to carbapenems in Acinetobacter baumannii” (2007)
Values after ≈ are worked out from the molar mass of the structure shown.

Key:
Acinetobacter baumannii [1] = assay: Antimicrobial activity against carbapenem-resistant Acinetobacter baumannii 183 isolate carrying one bla-OXA58 gene copy by agar dilution method; assay type: functional
Acinetobacter baumannii [2] = assay: Antimicrobial activity against carbapenem-resistant Acinetobacter baumannii BM4547 by agar dilution method; assay type: functional
Klebsiella pneumoniae = assay: Antimicrobial activity against Klebsiella pneumoniae isolate expressing VIM1 gene; assay type: functional
[3] = molecular target: Beta-lactamase OXA-58 (Acinetobacter baumannii) (UniProt Q2TR58); assay: Activity of OXA58 from Acinetobacter baumannii 193 isolate carrying two bla-OXA58 gene copy assessed as hydrolytic specific activity per mg of protein
Chain of Beta-lactamase OXA-58 (Acinetobacter baumannii) (Q2TR58 whole entry): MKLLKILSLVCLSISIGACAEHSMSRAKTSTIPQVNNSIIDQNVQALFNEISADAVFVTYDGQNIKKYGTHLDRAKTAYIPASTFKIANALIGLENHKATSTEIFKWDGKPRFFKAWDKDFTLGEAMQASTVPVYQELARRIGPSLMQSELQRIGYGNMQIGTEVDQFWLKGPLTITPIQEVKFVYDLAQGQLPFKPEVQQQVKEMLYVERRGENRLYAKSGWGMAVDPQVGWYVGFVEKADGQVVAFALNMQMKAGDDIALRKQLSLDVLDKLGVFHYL

[4] = molecular target: Beta-lactamase OXA-58 (Acinetobacter baumannii) (UniProt Q2TR58); assay: Activity of OXA58 from Acinetobacter baumannii 186 isolate carrying three bla-OXA58 gene copy assessed as hydrolytic specific activity per mg of protein
[5] = molecular target: Beta-lactamase OXA-58 (Acinetobacter baumannii) (UniProt Q2TR58); assay: Activity of OXA58 from Acinetobacter baumannii T193 isolate carrying two bla-OXA58 gene copy assessed as hydrolytic specific activity per mg of protein
Acinetobacter baumannii [6] = assay: Antimicrobial activity against carbapenem-resistant Acinetobacter baumannii T193 isolate carrying two bla-OXA58 gene copies by agar dilution method; assay type: functional
Acinetobacter baumannii [7] = assay: Antimicrobial activity against carbapenem-resistant Acinetobacter baumannii 193 isolate carrying two bla-OXA58 gene copies by agar dilution method; assay type: functional
[8] = molecular target: Beta-lactamase OXA-58 (Acinetobacter baumannii) (UniProt Q2TR58); assay: Activity of OXA58 from Acinetobacter baumannii T183 isolate carrying one bla-OXA58 gene copy assessed as hydrolytic specific activity per mg of protein
Acinetobacter baumannii [9] = assay: Antimicrobial activity against carbapenem-resistant Acinetobacter baumannii T186 isolate carrying three bla-OXA58 gene copies by agar dilution method; assay type: functional
[10] = molecular target: Beta-lactamase OXA-58 (Acinetobacter baumannii) (UniProt Q2TR58); assay: Activity of Acinetobacter baumannii […] OXA58 assessed as hydrolytic specific activity per mg of protein
Acinetobacter baumannii [11] = assay: Antimicrobial activity against carbapenem-resistant Acinetobacter baumannii T183 isolate carrying one bla-OXA58 gene copy by agar dilution method; assay type: functional
[12] = molecular target: Beta-lactamase OXA-58 (Acinetobacter baumannii) (UniProt Q2TR58); assay: Activity of OXA58 from Acinetobacter baumannii T186 isolate carrying three bla-OXA58 gene copy assessed as hydrolytic specific activity per mg of protein
[13] = molecular target: Beta-lactamase OXA-58 (Acinetobacter baumannii) (UniProt Q2TR58); assay: Activity of OXA58 from Acinetobacter baumannii 183 isolate carrying one bla-OXA58 gene copy assessed as hydrolytic specific activity per mg of protein
Acinetobacter baumannii [14] = assay: Antimicrobial activity against carbapenem-resistant Acinetobacter baumannii 186 isolate carrying three bla-OXA58 gene copies by agar dilution method; assay type: functional

| Structure (SMILES) | MIC (Acinetobacter baumannii [1]) [µg/mL] | MIC (Acinetobacter baumannii [2]) [µg/mL] | MIC (Klebsiella pneumoniae) [µg/mL] | Activity [3] [U/mg] | Activity [4] [U/mg] | Activity [5] [U/mg] | MIC (Acinetobacter baumannii [6]) [µg/mL] | MIC (Acinetobacter baumannii [7]) [µg/mL] | Activity [8] [U/mg] | MIC (Acinetobacter baumannii [9]) [µg/mL] | Activity [10] [U/mg] | MIC (Acinetobacter baumannii [11]) [µg/mL] | Activity [12] [U/mg] | Activity [13] [U/mg] | MIC (Acinetobacter baumannii [14]) [µg/mL] |
| --- | --- | --- | --- | --- | --- | --- | --- | --- | --- | --- | --- | --- | --- | --- | --- |
| C[C@@H](O)[C@H]1C(=O)N2C(C(=O)O)=C(SCCNC=N)C[C@H]12 [IMIPENEM ANHYDROUS] | 16 (≈ 53.4 µM) | 0.5 (≈ 1.67 µM) | 2 (≈ 6.68 µM) | 0.227 | 0.27 | 0.365 | 16 (≈ 53.4 µM) | 32 (≈ 107 µM) | 0.303 | 64 (≈ 214 µM) | < 0.01 | 6 (≈ 20 µM) | 0.388 | 0.165 |  |
| CC(C)(O/N=C(\C(=O)N[C@@H]1C(=O)N2C(C(=O)[O-])=C(C[n+]3ccccc3)CS[C@H]12)c1csc(N)n1)C(=O)O [CEFTAZIDIME] |  | 4 (≈ 7.32 µM) |  | 0.077 |  |  | 8 (≈ 14.6 µM) |  |  | 8 (≈ 14.6 µM) | < 0.01 | 8 (≈ 14.6 µM) |  | 0.075 |  |
| C[C@@H](O)[C@H]1C(=O)N2C(C(=O)O)=C(S[C@@H]3CN[C@H](C(=O)N(C)C)C3)[C@H](C)[C@H]12 [MEROPENEM] | 4 (≈ 10.4 µM) | 0.5 (≈ 1.3 µM) |  |  |  |  | 4 (≈ 10.4 µM) | 8 (≈ 20.9 µM) |  | 8 (≈ 20.9 µM) |  | 3 (≈ 7.82 µM) |  |  | 12 (≈ 31.3 µM) |
